From ChEMBL document CHEMBL4359828, “Back to the future: Advances in development of broad-spectrum capsid-binding inhibitors of enteroviruses” (Eur J Med Chem, 2019)

Key:
rhinovirus B14 = assay: Antiviral activity against Human rhinovirus B14; type: functional, organism-based; settings: Rhinovirus B
Enterovirus [1] = assay: Antiviral activity against Rhinovirus at 32 uM relative to control; type: functional
Human rhinovirus sp. [2] = assay: Antiviral activity against Human rhinovirus clinical isolates; type: functional, organism-based
Enterovirus C [3] = assay: Antiviral activity against Poliovirus assessed as reduction in virus induced cytopathic effect; type: functional, organism-based
Enterovirus C [4] = assay: Antiviral activity against Poliovirus; type: functional, organism-based
Enterovirus C [5] = assay: Antiviral activity against Poliovirus assessed as reduction in virus induced cytopathic effect relative to control; type: functional
Poliovirus 2 [6] = assay: Antiviral activity against Human poliovirus 2 relative to control; type: functional
Human rhinovirus sp. [7] = assay: Antiviral activity against Human rhinovirus clinical isolates relative to control; type: functional
Poliovirus 2 [8] = assay: Antiviral activity against Human poliovirus 2; type: functional, organism-based; settings: Enterovirus C
Enterovirus A71 [9] = assay: Antiviral activity against Enterovirus A71; type: functional, organism-based; settings: Enterovirus A
Coxsackievirus B3 = assay: Antiviral activity against Coxsackievirus B3; type: functional, organism-based; settings: Enterovirus B
rhinovirus A2 = assay: Antiviral activity against Human rhinovirus A2; type: functional, organism-based; settings: Rhinovirus A
[10] = Antiviral activity against Human rhinovirus B3; type: functional
rhinovirus B5 = assay: Antiviral activity against Human rhinovirus B5; type: functional, organism-based; settings: Rhinovirus B
[11] = Antiviral activity against Human rhinovirus B42; type: functional
[12] = Antiviral activity against Human rhinovirus B48; type: functional
[13] = Antiviral activity against Human rhinovirus A8; type: functional
Enterovirus [14] = assay: Antiviral activity against Rhinovirus; type: functional, organism-based
Enterovirus A71 [15] = assay: Antiviral activity against Enterovirus A71 genotype C; type: functional, organism-based; settings: Enterovirus A
Enterovirus A71 [16] = assay: Antiviral activity against Enterovirus A71 genotype B; type: functional, organism-based; settings: Enterovirus A
Enterovirus A71 [17] = assay: Antiviral activity against Enterovirus A71 genotype A; type: functional, organism-based
Echovirus E9 = assay: Antiviral activity against Echovirus 9; type: functional, organism-based; settings: Enterovirus B
enterovirus D68 = assay: Antiviral activity against Enterovirus D68; type: functional, organism-based; settings: Enterovirus D
Coxsackievirus A24 = assay: Antiviral activity against Coxsackievirus A24; type: functional, organism-based; settings: Enterovirus C
Coxsackievirus A9 = assay: Antiviral activity against Coxsackievirus A9; type: functional, organism-based; settings: Enterovirus B
Poliovirus 2 [18] = assay: Antiviral activity against Human poliovirus 2 infected in mouse; type: functional, organism-based; settings: Enterovirus C
[19] = Antiviral activity against Echovirus-3; type: functional, Echovirus E3
Echovirus E11 = assay: Antiviral activity against Echovirus-11; type: functional, organism-based; settings: Enterovirus B
HeLa = assay: Cytotoxicity against human HeLa cells after 3 days by MTT assay; type: functional, cell-based; settings: 72 h
Enterovirus [20] = assay: Antiviral activity against Enterovirus clinical isolate; type: functional, organism-based

SMILES: Cc1cc(CCCCCOc2c(Cl)cc(-c3nnn(C)n3)cc2Cl)on1
- IC50 (rhinovirus B14): 1200 nM

SMILES: COc1ccc(N2CCN(c3cccc(C)c3)CC2)nn1
- inhibition at 32 µM (Enterovirus [1]): 80%

SMILES: COc1ccc(OCc2ccc(COc3c(Cl)cccc3Cl)cc2)c(Cl)c1
- EC50 (Human rhinovirus sp. [2]): 900 nM
- EC50 (Enterovirus C [3]): 3 to 126 nM
- EC50 (Enterovirus C [4]): < 76 nM
- inhibition (INH) (Enterovirus C [5]): 90%
- Activity (Poliovirus 2 [6]): 80%
- Activity (Human rhinovirus sp. [7]): 80%
- EC50 (Poliovirus 2 [8]): 900 nM

SMILES: Cc1cc(CCCCCOc2c(Cl)cc(-c3ccc(Cl)o3)cc2Cl)on1
- IC50 (rhinovirus B14): 2000 nM

SMILES: Cc1cc(CCCCCOc2c(Cl)cc(-c3ccc(C)o3)cc2Cl)on1
- IC50 (rhinovirus B14): 2640 nM

SMILES: Cc1cc(CCCCCOc2c(Cl)cc(-c3ccco3)cc2Cl)on1
- IC50 (rhinovirus B14): 710 nM

SMILES: Cc1cc(CCCCCOc2c(Cl)cc(-c3ncco3)cc2Cl)on1
- IC50 (rhinovirus B14): 1830 nM

SMILES: Cc1cc(CCCCCOc2c(Cl)cc(-c3cccnc3)cc2Cl)on1
- IC50 (rhinovirus B14): 970 nM

SMILES: Cc1cc(CCCCCOc2c(Cl)cc(-c3ccc(C)s3)cc2Cl)on1
- IC50 (rhinovirus B14): 5200 nM

SMILES: Cc1cc(CCCCCOc2c(Cl)cc(-c3ccc(Cl)s3)cc2Cl)on1
- IC50 (rhinovirus B14): 5300 nM

SMILES: CCc1nc(-c2ccc(OCCC(C)CCN3CCN(c4ccncc4)C3=O)cc2)no1 (centres undefined)
- EC50 (Enterovirus A71 [9]): 0.5 nM

SMILES: Cc1cc(CCCOc2c(C)cc(-c3ccc(-c4ccccc4)cc3)cc2C)on1
- IC50 (Coxsackievirus B3): 1340 nM
- IC50 (rhinovirus A2): 9 nM

SMILES: Cc1cc(CCCOc2c(C)cc(-c3ccc(OC(F)(F)F)cc3)cc2C)on1
- IC50 (Coxsackievirus B3): 1340 nM
- IC50 (rhinovirus A2): 9 nM

SMILES: Cc1cc(CCCOc2c(C)cc(-c3ccccc3C)cc2C)on1
- IC50 (Coxsackievirus B3): 1340 nM
- IC50 (rhinovirus A2): 9 nM

SMILES: Cc1cc(CCCCCCOc2ccc(C3=NCCO3)cc2)on1
- IC50 (rhinovirus A2): 100 to 120 nM
- IC50 (Poliovirus 2 [8]): 8 nM

SMILES: Cc1cc(CCCCCOc2ccc(C3=NCCO3)cc2)on1
- IC50 (rhinovirus A2): 100 to 120 nM
- IC50 (Poliovirus 2 [8]): 3 nM

SMILES: Cc1cc(CCCCCCCOc2ccc(C3=NC(CO)CO3)cc2)on1 (centres undefined)
- IC50 (rhinovirus A2): 900 to 2600 nM
- IC50 (Poliovirus 2 [8]): 900 to 2600 nM

SMILES: Cc1cc(CCCCCCCOc2ccc(C3=NCC(CO)O3)cc2)on1 (centres undefined)
- IC50 (rhinovirus A2): 900 to 2600 nM
- IC50 (Poliovirus 2 [8]): 900 to 2600 nM

SMILES: Cc1cc(CCCOc2c(C)cc(-c3cccc(F)c3)cc2C)on1
- IC50 (Coxsackievirus B3): 1340 nM
- IC50 (rhinovirus A2): 9 nM

SMILES: Cc1cc(CCCOc2c(C)cc(-c3ccc(C(F)(F)F)cc3)cc2C)on1
- IC50 (Coxsackievirus B3): 1340 nM
- IC50 (rhinovirus A2): 9 nM

SMILES: Cc1cc(CCCOc2c(C)cc(-c3ccc(Cl)cc3)cc2C)on1
- IC50 [10]: 120 nM
- IC50 (rhinovirus B5): 110 nM

SMILES: Cc1cc(CCCOc2c(C)cc(-c3cccc([N+](=O)[O-])c3)cc2C)on1
- IC50 [10]: 350 nM
- IC50 (rhinovirus B5): 350 nM

SMILES: Cc1nc(-c2ccc(OCCC(C)CCN3CCN(c4ccncc4)C3=O)cc2)no1 (centres undefined)
- EC50 (Enterovirus A71 [9]): 0.9 nM

SMILES: COc1cc(-c2cc(C)c(OCCCc3cc(C)no3)c(C)c2)cc(OC)c1OC
- IC50 (Coxsackievirus B3): 1340 nM
- IC50 (rhinovirus A2): 9 nM

SMILES: Cc1cc(CCCOc2c(C)cc(-c3ccc(C)c(C)c3)cc2C)on1
- IC50 (Coxsackievirus B3): 1340 nM
- IC50 (rhinovirus A2): 9 nM

SMILES: Cc1cc(CCCOc2c(C)cc(-c3cccc(C(F)(F)F)c3)cc2C)on1
- IC50 (Coxsackievirus B3): 1340 nM
- IC50 (rhinovirus A2): 9 nM

SMILES: Cc1cc(CCCOc2c(C)cc(-c3cccc4ccccc34)cc2C)on1
- IC50 (Coxsackievirus B3): 1340 nM
- IC50 (rhinovirus A2): 9 nM

SMILES: Cc1cc(CCCCCOc2c(Cl)cc(-c3cnco3)cc2Cl)on1
- IC50 (rhinovirus B14): 12800 nM

SMILES: Cc1cc(CCCCCOc2c(Cl)cc(-c3cccs3)cc2Cl)on1
- IC50 (rhinovirus B14): 7320 nM

SMILES: Nc1nc(-c2ccccc2)nc2[nH]nc(Nc3ccc(C(F)(F)F)cc3)c12
- IC50 (rhinovirus B5): 40 to 640 nM
- IC50 (Coxsackievirus B3): 40 to 640 nM
- IC50 [11]: 40 to 640 nM
- IC50 [12]: 40 to 640 nM
- IC50 (rhinovirus A2): 40 to 640 nM
- IC50 [13]: 40 to 640 nM

SMILES: COc1ccc(OCc2ccc(COc3ccc(OC)cc3Cl)cc2)c(Cl)c1
- EC50 (Enterovirus [14]; Enterovirus): 10 nM

SMILES: Cc1cc(CCCOc2c(C)cc(-c3cc(C(F)(F)F)cc(C(F)(F)F)c3)cc2C)on1
- IC50 (Coxsackievirus B3): 1340 nM
- IC50 (rhinovirus A2): 9 nM

SMILES: COc1ccc(OCCCCCCn2ccnc2)c(Cl)c1
- EC50 (Enterovirus [14]; Enterovirus): 10200 to 29100 nM

SMILES: O=C1N(CCCCCOc2ccc(Br)cc2)CCN1c1ccncc1
- IC50 (Enterovirus A71 [15]): 300 to 1600 nM
- IC50 (Enterovirus A71 [16]): 300 to 1600 nM
- IC50 (Enterovirus A71 [17]): 300 to 1600 nM
- IC50 (Echovirus E9): 2600 nM
- IC50 (enterovirus D68): 2130 nM
- IC50 (Coxsackievirus A24): 470 to 550 nM
- IC50 (Coxsackievirus A9): 470 to 550 nM

SMILES: COc1ccc(OCCCCCCCc2cc(C)no2)c(Cl)c1
- IC50 (Poliovirus 2 [18]): 40 to 150 nM
- IC50 (Enterovirus [14]; Enterovirus): 10 to 5800 nM
- IC50 [19]: 40 to 150 nM
- IC50 (Echovirus E11): 40 to 150 nM

SMILES: Cc1cc(CCCCCCCOc2ccc(C3=NC(C)CO3)cc2)on1 (centres undefined)
- IC50 (rhinovirus A2): 40 to 60 nM
- IC50 (Poliovirus 2 [8]): 100 to 120 nM

SMILES: Cc1cc(CCCCCCCOc2ccc(C3=NC(C)(C)CO3)cc2)on1
- IC50 (rhinovirus A2): 40 to 60 nM
- IC50 (Poliovirus 2 [8]): 100 to 120 nM

SMILES: Cc1cc(CCCOc2c(C)cc(-c3ccc(O)cc3)cc2C)on1
- IC50 [10]: 770 nM
- IC50 (rhinovirus B5): 770 nM

SMILES: Cc1cc(CCCOc2c(C)cc(-c3ccc([N+](=O)[O-])cc3)cc2C)on1
- IC50 [10]: 760 nM
- IC50 (rhinovirus B5): 760 nM

SMILES: Cc1cc(CCCOc2c(C)cc(-c3ccc(F)cc3)cc2C)on1
- IC50 [10]: 120 nM
- IC50 (rhinovirus B5): 110 nM
- IC50 (Coxsackievirus B3): 1340 nM
- IC50 (rhinovirus A2): 9 nM

SMILES: Cc1cc(CCCOc2c(C)cc(-c3ccccc3F)cc2C)on1
- IC50 [10]: 120 nM
- IC50 (rhinovirus B5): 110 nM

SMILES: Cc1cc(CCCOc2c(C)cc(-c3cccc(O)c3)cc2C)on1
- IC50 [10]: 440 nM
- IC50 (rhinovirus B5): 440 nM

SMILES: Cc1ccc(-c2cc(C)c(OCCCc3cc(C)no3)c(C)c2)cc1
- IC50 [10]: 120 nM
- IC50 (rhinovirus B5): 110 nM

SMILES: Cc1cc(CCCCCCCOc2ccc(C3=NCCO3)cc2)on1 [DISOXARIL]
- IC50 (Enterovirus [14]): 4 to 6200 nM
- IC50 (rhinovirus A2): 4 nM
- IC50 (Poliovirus 2 [8]): 4 nM

SMILES: Cc1cc(CCCOc2c(C)cc(-c3noc(C(F)(F)F)n3)cc2C)on1 [PLECONARIL]
- IC50 (HeLa): ≤ 180 nM
- IC50 (Enterovirus [20]): ≤ 30 nM
